Source: US20110305673A1, “COMPOSITIONS AND METHODS FOR TISSUE REPAIR” (The University of Vermont and State Agriculture College, priority 2008, published 2011)

Tests used:
[1] = test system: cardiac progenitor cells; test: Signal transduction inhibitor study on CPC number (48 hrs); format: cell-based, rat; conditions: for cell number ratio to control cell number: CPCs in MSC CdM; for cell number ratio to control cell number / effect on number/growth of CPCs in MSC conditioned media: 48 hrs; for effect on number/growth of CPCs in MSC conditioned media: inhibitor 10 μM
Protocol: Serum-free conditioned media was prepared as described previously (Kiel et al., Cell 2005; 121:1109-1121). cardiac progenitor cells and cardiac fibroblasts were plated at 500 cells/cm^2 and cultured in their growth medium. Three days after plating the medium was removed, the wells were washed twice with PBS, and the cells were then exposed to conditioned media or to fresh serum-free medium (α-MEM). For time course proliferation studies, the conditioned media and serum-free medium were changed every 2 days. […] All inhibitors were from Calbiochem (EMD Chemicals, San Diego, Calif.) and were dissolved in dimethyl sulfoxide (DMSO). Cardiac progenitor cells were cultured in conditioned media with the inhibitors or with the equivalent volume of DMSO as a control for 48 hrs. In the protection study, 3 days after plating, the medium was replaced with either the conditioned media or serum-free medium and the cells were exposed to hypoxia in a specialized incubator (1% oxygen) for 48 hours. The hypoxia incubator was a model that measured both CO2 and O2 (Thermo Electron, Form a Series II, model 3130). Oxygen was maintained at 1% by the injection of nitrogen gas and was monitored continuously. Cell numbers were quantified by the fluorescent labeling of nucleic acids (CyQuant dye; Molecular Probes, Carlsbad, Calif.) and with a microplate fluorescence reader (FLX800; Bio-Tek Instruments Inc., Winooski, Vt.) set to 480 nm excitation and 520 nm emission. Each experiment was repeated a minimum of 3 times.

[2] = test system: cardiac progenitor cells; test: CPC protection study under hypoxia (1% oxygen, 48 hours); format: cell-based, rat; conditions: inhibitor 10 μM
Protocol: Serum-free conditioned media was prepared as described previously (Kiel et al., Cell 2005; 121:1109-1121). cardiac progenitor cells and cardiac fibroblasts were plated at 500 cells/cm^2 and cultured in their growth medium. Three days after plating the medium was removed, the wells were washed twice with PBS, and the cells were then exposed to conditioned media or to fresh serum-free medium (α-MEM). For time course proliferation studies, the conditioned media and serum-free medium were changed every 2 days. In the signal transduction inhibitor studies the following pharmacological inhibitors, were used (10 micromolar): AG490, an inhibitor of Jak2/STAT3 pathway; Stattic, a specific inhibitor of STAT3 phosphorylation at Tyr^705; LY294002, inhibitor of phosphatidylinositol 3-kinase (PI3K)/Akt pathway; and PD98059, extracellular signal-regulated kinase (ERK) inhibitor. […] The hypoxia incubator was a model that measured both CO2 and O2 (Thermo Electron, Form a Series II, model 3130). Oxygen was maintained at 1% by the injection of nitrogen gas and was monitored continuously. Cell numbers were quantified by the fluorescent labeling of nucleic acids (CyQuant dye; Molecular Probes, Carlsbad, Calif.) and with a microplate fluorescence reader (FLX800; Bio-Tek Instruments Inc., Winooski, Vt.) set to 480 nm excitation and 520 nm emission. […]

[3] = test system: CD133dMSCs; test: Puromycin kill curve; format: cell-based, human; conditions: after 3 days
Protocol: Based on observations that CD133dMSCs increased their secretion of SDF-1 in culture following exposure to hypoxia and mRNA expression in vivo after injection into stroke penumbra, the role of SDF-1 in mediating the benefits of CD133dMSC CdM was explored using lentiviral shRNA knockdown of SDF-1 with puromycin-selectable vectors. In preliminary studies, kill curves were performed with transduced CD133dMSCs incubated in puromycin-containing culture medium to remove cells that were not transduced by lentivirus. […] Following lentiviral transduction of expanded CD133dMSCs from a single donor with a scrambled shRNA vector, 2 different shRNAs vectors against SDF-1, or a control selectable GFP vector, ELISAs and FACS assays were performed to characterize the cells.

**Q.** `N#C/C(=C/c1ccc(O)c(O)c1)C(=O)NCc1ccccc1` [AG490] was tested. Which “cell number ratio to control cell number” value ([1]; 1 μM) did it give?
**A.** Its value is 96.3±0.9%.

**Q.** What about the “cell number ratio to control cell number” value ([1]; 5 μM) of the same compound?
**A.** Its value is 89.5±0.9%.

**Q.** What about the “effect on CPC numbers in growth medium” value ([1]; 10 μM, 48 hours) of the same compound?
**A.** Its value is “not AG490 significantly diminished”.

**Q.** What about the “effect on number of CPCs in conditioned media from fibroblasts” value ([1]; 10 μM, 48 hours) of the same compound?
**A.** The value was “inhibitory effect”.

**Q.** And the “effect on number of CPCs in conditioned media from p75MSCs” value ([1]; 10 μM, 48 hours)?
**A.** The value was “inhibitory effect”.

**Q.** And the “effect on number of CPCs in serum-free medium” value ([1]; 10 μM, 48 hours)?
**A.** Its value is “significantly reduced”.

**Q.** What about the “cell number ratio to control cell number” value ([1]; 10 μM) of the same compound?
**A.** Its value is 43.4±2.4%.

**Q.** What about the “effect on protective effects of conditioned media during hypoxia” value [2] of the same compound?
**A.** The value was “inhibited the protective effects”.

**Q.** For `COc1cccc(-c2cc(=O)c3ccccc3o2)c1N` [PD98059], which “effect on number/growth of CPCs in MSC conditioned media” value [1] is on record?
**A.** The value was “did not block”.

**Q.** For `O=[N+]([O-])c1ccc2c(c1)S(=O)(=O)C=C2` [Stattic], which “effect on number/growth of CPCs in MSC conditioned media” value [1] is on record?
**A.** Its value is “completely blocked”.

**Q.** And the “effect on protective effects of conditioned media during hypoxia” value [2]?
**A.** Its value is “blocked the protective effects”.

**Q.** For `COc1ccc(C[C@H](N)C(=O)N[C@H]2[C@@H](O)[C@H](n3cnc4c(N(C)C)ncnc43)O[C@@H]2CO)cc1` [puromycin], which “concentration sufficient to remove all untransduced CD133dMSCs” value [3] is on record?
**A.** The value was 2 µg/mL.
